How the values were obtained:
oilseed rape = test: Test C pre-/postemergence herbicide test; format: in vivo, Brassica napus
How it was run: (§1)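 Two application timings ran in parallel with identically formulated test chemicals (non-phytotoxic solvent, surfactant included): spray on seeded loam–sand soil, and spray on emerged plants 2 to 18 cm high. Evaluation at 13 to 15 days compared each species with controls, rated from 0 up to 100.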

ducksalad = test: Test B flooded paddy test; format: in vivo, Heteranthera limosa; settings: Flood, scale of 0 to 100 where 0 is no effect and 100 is complete control
How it was run: (§2)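 Plants were grown to the 2-leaf stage, then pots were flooded to 3 cm above the soil and compound was applied directly into the paddy water, with that depth held throughout. After 13 to 15 days in a greenhouse, injury was rated visually against untreated controls on a 0 to 100 scale (100 = complete control).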

rice = test: Test B flooded paddy test; format: in vivo, Oryza sativa; settings: Flood, scale of 0 to 100 where 0 is no effect and 100 is complete control
How it was run: as §2

ryegrass, Italian = test: Test C pre-/postemergence herbicide test; format: in vivo, Lolium multiflorum
How it was run: as §1

ragweed = test: Test C pre-/postemergence herbicide test; format: in vivo, Ambrosia elatior
How it was run: as §1

sedge, umbrella = test: Test B flooded paddy test; format: in vivo, Cyperus difformis; settings: Flood, scale of 0 to 100 where 0 is no effect and 100 is complete control
How it was run: as §2

wheat = test: Test A pre-/postemergence herbicide test; format: in vivo, Triticum aestivum
How it was run: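 Directed soil spray to seeded pots (preemergence) or spray onto one- to two-leaf seedlings 2–10 cm tall (postemergence); loam/sand substrate throughout. Evaluated visually after about 10 days against untreated plants, 0 = no effect, 100 = complete control.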

corn = test: Test C pre-/postemergence herbicide test; format: in vivo, Zea mays
How it was run: as §1

pigweed = test: Test C pre-/postemergence herbicide test; format: in vivo, Amaranthus retroflexus
How it was run: as §1

barnyardgrass = test: Test B flooded paddy test; format: in vivo, Echinochloa crus-galli; settings: Flood, scale of 0 to 100 where 0 is no effect and 100 is complete control
How it was run: as §2

johnsongrass = test: Test C pre-/postemergence herbicide test; format: in vivo, Sorghum halepense
How it was run: as §1

nutsedge, yellow = test: Test C pre-/postemergence herbicide test; format: in vivo, Cyperus esculentus
How it was run: as §1

soybean = test: Test C pre-/postemergence herbicide test; format: in vivo, Glycine max
How it was run: as §1

[1] = Postemergence, 16 g ai/ha, scale 0 to 100 (0 no effect, 100 complete control)
[2] = Postemergence, 31 g ai/ha, scale 0 to 100 (0 no effect, 100 complete control)
[3] = Postemergence, 62 g ai/ha, scale 0 (no effect) to 100 (complete control)
[4] = Postemergence, 125 g ai/ha, scale 0 to 100 (0 no effect, 100 complete control)
[5] = Preemergence, 31 g ai/ha, scale 0 to 100, 0 is no effect and 100 is complete control
[6] = Preemergence, 62 g ai/ha, scale 0 to 100 (0 no effect, 100 complete control)
[7] = Preemergence, 125 g ai/ha, scale 0 to 100 (0 no effect, 100 complete control)
[8] = Preemergence, 16 g ai/ha, scale 0 to 100
[9] = Postemergence, 500 g ai/ha, 0 to 100 scale (0 no effect, 100 complete control)

For `CN1CC(c2ccc(C(F)(F)F)cc2)C(C(=O)Nc2ccccc2F)C1=O` (stereo not shown) [Compound 304], the “Plant response rating, Oilseed Rape” value (oilseed rape; [1]) was 0, the “Plant response rating, Oilseed Rape” value (oilseed rape; [2]) was 0 and the “Plant response rating, Oilseed Rape” value (oilseed rape; [3]) was 0. The “Plant response rating, Oilseed Rape” value (oilseed rape; [4]) was 0, the “Oilseed Rape plant response rating” value (oilseed rape; [5]) was 50 and the “Oilseed Rape plant response rating” value (oilseed rape; [6]) was 55. For the same compound, the “Plant response rating, Oilseed Rape” value (oilseed rape; [7]) was 55, the “Plant response rating, Oilseed Rape” value (oilseed rape; [8]) was 30 and the “Plant response rating, Ducksalad” value (ducksalad; 500 g ai/ha) was 100. For the same compound, the “Plant response rating, Rice” value (rice; 500 g ai/ha) was 35, the “Plant response rating, Ryegrass, Italian” value (ryegrass, Italian; [1]) was 0 and the “Plant response rating, Ryegrass, Italian” value (ryegrass, Italian; [2]) was 0. For the same compound, the “Plant response rating, Ryegrass, Italian” value (ryegrass, Italian; [3]) was 5, the “Plant response rating, Ryegrass, Italian” value (ryegrass, Italian; [4]) was 0 and the “Ryegrass, Italian plant response rating” value (ryegrass, Italian; [5]) was 30. The “Ryegrass, Italian plant response rating” value (ryegrass, Italian; [6]) was 75, the “Plant response rating, Ryegrass, Italian” value (ryegrass, Italian; [7]) was 40 and the “Plant response rating, Ryegrass, Italian” value (ryegrass, Italian; [8]) was 10. For the same compound, the “Plant response rating, Ragweed” value (ragweed; [1]) was 0, the “Plant response rating, Ragweed” value (ragweed; [2]) was 0 and the “Plant response rating, Ragweed” value (ragweed; [3]) was 0. The “Plant response rating, Ragweed” value (ragweed; [4]) was 35, the “Ragweed plant response rating” value (ragweed; [5]) was 60 and the “Ragweed plant response rating” value (ragweed; [6]) was 60. The “Plant response rating, Ragweed” value (ragweed; [7]) was 80, the “Plant response rating, Ragweed” value (ragweed; [8]) was 25 and the “Plant response rating, Sedge, Umbrella” value (sedge, umbrella; 500 g ai/ha) was 0. The “Plant response rating, Wheat” value (wheat; Postemergence, 125 g ai/ha, visual rating on 0 to 100 scale (0 no effect, 100 complete control), approx. 10 days) was 40, the “Plant response rating, Wheat” value (wheat; [9]) was 60 and the “Plant response rating, Corn” value (corn; [1]) was 0. The “Plant response rating, Corn” value (corn; [2]) was 0, the “Plant response rating, Corn” value (corn; [3]) was 0 and the “Plant response rating, Corn” value (corn; [4]) was 5. The “Corn plant response rating” value (corn; [5]) was 0, the “Corn plant response rating” value (corn; [6]) was 40 and the “Plant response rating, Corn” value (corn; [7]) was 65. For the same compound, the “Plant response rating, Corn” value (corn; [8]) was 0, the “Plant response rating, Pigweed” value (pigweed; [1]) was 25 and the “Plant response rating, Pigweed” value (pigweed; [2]) was 35. The “Plant response rating, Pigweed” value (pigweed; [3]) was 55, the “Plant response rating, Pigweed” value (pigweed; [4]) was 55 and the “Pigweed plant response rating” value (pigweed; [5]) was 55. For the same compound, the “Pigweed plant response rating” value (pigweed; [6]) was 75, the “Plant response rating, Pigweed” value (pigweed; [7]) was 85 and the “Plant response rating, Pigweed” value (pigweed; [8]) was 40. The “Plant response rating, Barnyardgrass” value (barnyardgrass; 500 g ai/ha) was 80, the “Plant response rating, Johnsongrass” value (johnsongrass; [1]) was 0 and the “Plant response rating, Johnsongrass” value (johnsongrass; [2]) was 0. The “Plant response rating, Johnsongrass” value (johnsongrass; [3]) was 0, the “Plant response rating, Johnsongrass” value (johnsongrass; [4]) was 0 and the “Johnsongrass plant response rating” value (johnsongrass; [5]) was 0. For the same compound, the “Johnsongrass plant response rating” value (johnsongrass; [6]) was 35, the “Plant response rating, Johnsongrass” value (johnsongrass; [7]) was 35 and the “Plant response rating, Johnsongrass” value (johnsongrass; [8]) was 0. The “Plant response rating, Nutsedge, Yellow” value (nutsedge, yellow; [1]) was 0, the “Plant response rating, Nutsedge, Yellow” value (nutsedge, yellow; [2]) was 0 and the “Plant response rating, Nutsedge, Yellow” value (nutsedge, yellow; [3]) was 0. For the same compound, the “Plant response rating, Nutsedge, Yellow” value (nutsedge, yellow; [4]) was 0, the “Nutsedge, Yellow plant response rating” value (nutsedge, yellow; [5]) was 0 and the “Nutsedge, Yellow plant response rating” value (nutsedge, yellow; [6]) was 25. The “Plant response rating, Nutsedge, Yellow” value (nutsedge, yellow; [7]) was 0, the “Plant response rating, Nutsedge, Yellow” value (nutsedge, yellow; [8]) was 0 and the “Plant response rating, Soybean” value (soybean; [1]) was 0. The “Plant response rating, Soybean” value (soybean; [2]) was 0, the “Plant response rating, Soybean” value (soybean; [3]) was 5 and the “Plant response rating, Soybean” value (soybean; [4]) was 10. For the same compound, the “Soybean plant response rating” value (soybean; [5]) was 0, the “Soybean plant response rating” value (soybean; [6]) was 0 and the “Plant response rating, Soybean” value (soybean; [7]) was 0. For the same compound, the “Plant response rating, Soybean” value (soybean; [8]) was 0.
`O=C1NCC(c2ccc(C(F)(F)F)c(F)c2)C1C(=O)Nc1ccccc1F` (racemic) [Compound 246] was tested, and the “Oilseed Rape plant response rating” value (oilseed rape; [5]) was 0, the “Oilseed Rape plant response rating” value (oilseed rape; [6]) was 30 and the “Plant response rating, Oilseed Rape” value (oilseed rape; [7]) was 0. The “Plant response rating (scale of 0 to 100), Oilseed Rape” value (oilseed rape; Preemergence, 250 g ai/ha) was 30, the “Plant response rating, Ducksalad” value (ducksalad; 1000 g ai/ha) was 95 and the “Plant response rating, Rice” value (rice; 1000 g ai/ha) was 20. For the same compound, the “Ryegrass, Italian plant response rating” value (ryegrass, Italian; [5]) was 0, the “Ryegrass, Italian plant response rating” value (ryegrass, Italian; [6]) was 0 and the “Plant response rating, Ryegrass, Italian” value (ryegrass, Italian; [7]) was 10. For the same compound, the “Plant response rating (scale of 0 to 100), Ryegrass, Italian” value (ryegrass, Italian; Preemergence, 250 g ai/ha) was 10, the “Ragweed plant response rating” value (ragweed; [5]) was 0 and the “Ragweed plant response rating” value (ragweed; [6]) was 0. The “Plant response rating, Ragweed” value (ragweed; [7]) was 0, the “Plant response rating (scale of 0 to 100), Ragweed” value (ragweed; Preemergence, 250 g ai/ha) was 40 and the “Plant response rating, Sedge, Umbrella” value (sedge, umbrella; 1000 g ai/ha) was 20. The “Plant response rating, Wheat” value (wheat; Postemergence, 125 g ai/ha, 0 to 100 scale, 0 is no effect, 100 is complete control) was 0, the “Plant response rating, Wheat” value (wheat; [9]) was 30 and the “Plant response rating, Wheat” value (wheat; Preemergence, 125 g ai/ha, 0 to 100 scale where 0 is no effect and 100 is complete control) was 0. The “Corn plant response rating” value (corn; [5]) was 0, the “Corn plant response rating” value (corn; [6]) was 0 and the “Plant response rating, Corn” value (corn; [7]) was 5. The “Plant response rating (scale of 0 to 100), Corn” value (corn; Preemergence, 250 g ai/ha) was 0, the “Pigweed plant response rating” value (pigweed; [5]) was 30 and the “Pigweed plant response rating” value (pigweed; [6]) was 75. The “Plant response rating, Pigweed” value (pigweed; [7]) was 75, the “Plant response rating (scale of 0 to 100), Pigweed” value (pigweed; Preemergence, 250 g ai/ha) was 100 and the “Plant response rating, Barnyardgrass” value (barnyardgrass; 1000 g ai/ha) was 60. The “Johnsongrass plant response rating” value (johnsongrass; [5]) was 0, the “Johnsongrass plant response rating” value (johnsongrass; [6]) was 20 and the “Plant response rating, Johnsongrass” value (johnsongrass; [7]) was 0. For the same compound, the “Plant response rating (scale of 0 to 100), Johnsongrass” value (johnsongrass; Preemergence, 250 g ai/ha) was 5, the “Nutsedge, Yellow plant response rating” value (nutsedge, yellow; [5]) was 85 and the “Nutsedge, Yellow plant response rating” value (nutsedge, yellow; [6]) was 100. The “Plant response rating, Nutsedge, Yellow” value (nutsedge, yellow; [7]) was 100, the “Plant response rating (scale of 0 to 100), Nutsedge, Yellow” value (nutsedge, yellow; Preemergence, 250 g ai/ha) was 0 and the “Soybean plant response rating” value (soybean; [5]) was 0. The “Soybean plant response rating” value (soybean; [6]) was 0, the “Plant response rating, Soybean” value (soybean; [7]) was 0 and the “Plant response rating (scale of 0 to 100), Soybean” value (soybean; Preemergence, 250 g ai/ha) was 10.

Source: US10294202B2, “Pyrrolidinones as herbicides” (FMC Corporation, priority 2013, dated 2019)
